Measurements as given in ChEMBL document CHEMBL1144260, “Hybridization dependent cleavage of internally modified disulfide-peptide nucleic acids” (Bioorg Med Chem Lett, 2005).

Experiments:
Assay type in all cases: functional
[1] = system: Nucleic Acid; test: Percentage of cleavage in single stranded peptide nucleic acid was measured after treating with compound for 30 min; selectivity factor=10.2; PNA:DNA=5a:6
[2] = system: Nucleic Acid; test: Percentage of cleavage in single stranded peptide nucleic acid (PNA) DNA duplex was measured after treating with compound for 30 min; selectivity factor=10.2; PNA:DNA=5a:6
[3] = system: Nucleic Acid; test: Percentage of cleavage in single stranded peptide nucleic acid was measured after treating with compound for 10 min; selectivity factor=0.6; PNA:DNA=5a:6
[4] = system: Nucleic Acid; test: Percentage of cleavage in single stranded peptide nucleic acid (PNA) DNA duplex was measured after treating with compound for 10 min; selectivity factor=0.6; PNA:DNA=5a:6
[5] = system: Nucleic Acid; test: Percentage of cleavage in single stranded peptide nucleic acid was measured after treating with compound for 30 min; selectivity factor=1; PNA:DNA=5a:6
[6] = system: Nucleic Acid; test: Percentage of cleavage in single stranded peptide nucleic acid (PNA) DNA duplex was measured after treating with compound for 30 min; selectivity factor=1; PNA:DNA=5a:6
[7] = system: Nucleic Acid; test: Percentage of cleavage in single stranded peptide nucleic acid (PNA)-DNA duplex was measured after treating with compound for 300 min; selectivity factor=10.1; PNA:DNA=5b:7
[8] = system: Nucleic Acid; test: Percentage of cleavage in single stranded peptide nucleic acid (PNA) DNA duplex was measured after treating with compound for 300 min; selectivity factor=4.6; PNA:DNA=5a:6 (with NaCl 0.5 M)
[9] = system: Nucleic Acid; test: Percentage of cleavage in single stranded peptide nucleic acid was measured after treating with compound for 300 min; selectivity factor=10.1; PNA:DNA=5b:7
[10] = system: Nucleic Acid; test: Percentage of cleavage in single stranded peptide nucleic acid was measured after treating with compound for 300 min; selectivity factor=23.8; PNA:DNA=5a:6
[11] = system: Nucleic Acid; test: Percentage of cleavage in single stranded peptide nucleic acid (PNA) DNA duplex was measured after treating with compound for 300 min; selectivity factor=2.8; PNA:DNA=5c:8a
[12] = system: Nucleic Acid; test: Percentage of cleavage in single stranded peptide nucleic acid was measured after treating with compound for 300 min; selectivity factor=2.8; PNA:DNA=5c:8a
[13] = system: Nucleic Acid; test: Percentage of cleavage in single stranded peptide nucleic acid (PNA) DNA duplex was measured after treating with compound for 300 min; selectivity factor=23.8; PNA:DNA=5a:6
[14] = system: Nucleic Acid; test: Percentage of cleavage in single stranded peptide nucleic acid was measured after treating with compound for 300 min; selectivity factor=4.6; PNA:DNA=5a:6 (with NaCl 0.5 M)
[15] = system: Nucleic Acid; test: Percentage of cleavage in single stranded peptide nucleic acid (PNA) DNA duplex was measured after treating with compound for 2 min; selectivity factor=1.5; PNA:DNA=5a:6
[16] = system: Nucleic Acid; test: Percentage of cleavage in single stranded peptide nucleic acid was measured after treating with compound for 2 min; selectivity factor=1.5; PNA:DNA=5a:6
[17] = system: Nucleic Acid; test: Percentage of cleavage in single stranded peptide nucleic acid was measured after treating with compound for 2 min; selectivity factor>/=1; PNA:DNA=5a:6b
[18] = system: Nucleic Acid; test: Percentage of cleavage in single stranded peptide nucleic acid (PNA) DNA duplex was measured after treating with compound for 20 min; selectivity factor=17.3; PNA:DNA=5b:7
[19] = system: Nucleic Acid; test: Percentage of cleavage in single stranded peptide nucleic acid was measured after treating with compound for 20 min; selectivity factor=2.9; PNA:DNA=5b:7b
[20] = system: Nucleic Acid; test: Percentage of cleavage in single stranded peptide nucleic acid was measured after treating with compound for 20 min; selectivity factor=17.3; PNA:DNA=5b:7
[21] = system: Nucleic Acid; test: Percentage of cleavage in single stranded peptide nucleic acid was measured after treating with compound for 20 min; selectivity factor=22.2; PNA:DNA=5c:8b
[22] = system: Nucleic Acid; test: Percentage of cleavage in single stranded peptide nucleic acid (PNA) DNA duplex was measured after treating with compound for 20 min; selectivity factor=2.9; PNA:DNA=5b:7b
[23] = system: Nucleic Acid; test: Percentage of cleavage in single stranded peptide nucleic acid (PNA) DNA duplex was measured after treating with compound for 2 min; selectivity factor>/=1; PNA:DNA=5a:6b
[24] = system: Nucleic Acid; test: Percentage of cleavage in single stranded peptide nucleic acid was measured after treating with compound for 20 min; selectivity factor=7.4; PNA:DNA=5b:7a
[25] = system: Nucleic Acid; test: Percentage of cleavage in single stranded peptide nucleic acid was measured after treating with compound for 20 min; selectivity factor=25.7; PNA:DNA=5c:8a
[26] = system: Nucleic Acid; test: Percentage of cleavage in single stranded peptide nucleic acid (PNA) DNA duplex was measured after treating with compound for 20 min; selectivity factor=57.1; PNA:DNA=5c:8
[27] = system: Nucleic Acid; test: Percentage of cleavage in single stranded peptide nucleic acid (PNA) DNA duplex was measured after treating with compound for 20 min; selectivity factor=25.7; PNA:DNA=5c:8a
[28] = system: Nucleic Acid; test: Percentage of cleavage in single stranded peptide nucleic acid was measured after treating with compound for 20 min; selectivity factor=57.1; PNA:DNA=5c:8
[29] = system: Nucleic Acid; test: Percentage of cleavage in single stranded peptide nucleic acid (PNA) DNA duplex was measured after treating with compound for 20 min; selectivity factor=22.2; PNA:DNA=5c:8b
[30] = system: Nucleic Acid; test: Percentage of cleavage in single stranded peptide nucleic acid (PNA) DNA duplex was measured after treating with compound for 2 min; selectivity factor>1; PNA:DNA= 5a:6
[31] = system: Nucleic Acid; test: Percentage of cleavage in single stranded peptide nucleic acid (PNA) DNA duplex was measured after treating with compound for 20 min; selectivity factor=7.4; PNA:DNA=5b:7a
[32] = system: Nucleic Acid; test: Percentage of cleavage in single stranded peptide nucleic acid was measured after treating with compound for 2 min; selectivity factor>1; PNA:DNA=5a:6
[33] = system: Nucleic Acid; test: Percentage of cleavage in single stranded peptide nucleic acid was measured after treating with compound for 0.5 min; selectivity factor=0.9; PNA:DNA=5a:6
[34] = system: Nucleic Acid; test: Percentage of cleavage in single stranded peptide nucleic acid (PNA) DNA duplex was measured after treating with compound for 0.5 min; selectivity factor=0.9; PNA:DNA=5a:6
[35] = system: Nucleic Acid; test: Percentage of cleavage in single stranded peptide nucleic acid was measured after treating with compound for 30 min; selectivity factor=1.6; PNA:DNA=5a:6
[36] = system: Nucleic Acid; test: Percentage of cleavage in single stranded peptide nucleic acid (PNA) DNA duplex was measured after treating with compound for 30 min; selectivity factor=1.6; PNA:DNA=5a:6
[37] = system: Nucleic Acid; test: Percentage of cleavage in single stranded peptide nucleic acid was measured after treating with compound for 30 min; selectivity factor=0.7; PNA:DNA=5a:6
[38] = system: Nucleic Acid; test: Percentage of cleavage in single stranded peptide nucleic acid (PNA) DNA duplex was measured after treating with compound for 30 min; selectivity factor=0.7; PNA:DNA=5a:6

Question: With `OCC(S)C(S)CO` (stereo not drawn) as the compound, how does the Cleavage [1] read?
Answer: 77.2%

Question: What about the Cleavage [2] of the same compound?
Answer: 7.6%

Question: For `NC(CS)C(=O)O` (stereo not drawn), which Cleavage [3] is on record?
Answer: 16.2%

Question: And the Cleavage [4]?
Answer: 28.4%

Question: Which Cleavage [5] does the source give for `O=C(O)c1ccc(P(c2ccccc2)c2ccccc2)cc1` here?
Answer: 92.9%

Question: And the Cleavage [6]?
Answer: 88.6%

Question: Which results are given for `O=S(=O)(O)c1ccc(P(c2ccc(S(=O)(=O)O)cc2)c2ccc(S(=O)(=O)O)cc2)cc1`?
Answer: Cleavage [7]: 9%; Cleavage [8]: 21%; Cleavage [9]: 91.1%; Cleavage [10]: 88.1%; Cleavage [11]: 34.6%; Cleavage [12]: 95.2%; Cleavage [13]: 3.7%; Cleavage [14]: 97.6%

Question: For `NCCS`, which Cleavage [15] is on record?
Answer: 56.1%

Question: And the Cleavage [16]?
Answer: 86.8%

Question: What does the source list for `O=C(O)CCP(CCC(=O)O)CCC(=O)O`?
Answer: Cleavage [17]: 100%; Cleavage [18]: 1.8%; Cleavage [19]: 31.2%; Cleavage [20]: 31.2%; Cleavage [21]: 97.6%; Cleavage [22]: 10.8%; Cleavage [23]: 98.6%; Cleavage [24]: 31.2%; Cleavage [25]: 97.6%; Cleavage [26]: 1.7%; Cleavage [27]: 3.8%; Cleavage [28]: 97.6%; Cleavage [29]: 4.4%; Cleavage [30]: 70.7%; Cleavage [31]: 4.2%; Cleavage [32]: 100%

Question: For `CN(C)c1ccc(P(c2ccccc2)c2ccccc2)cc1`, which Cleavage [33] is on record?
Answer: 19.5%

Question: What about the Cleavage [34] of the same compound?
Answer: 23%

Question: What does the source list for `O=C(O)c1ccccc1P(c1ccccc1)c1ccccc1`?
Answer: Cleavage [35]: 69.1%; Cleavage [36]: 43.7%

Question: Which Cleavage [37] does the source give for `O=C(O)CCS` here?
Answer: 52.3%

Question: And the Cleavage [38]?
Answer: 78.9%
